From patent US8513271B2, “Pyrimidine compounds as delta opioid receptor modulators” (Janssen Pharmaceutica, NV, priority 2009, dated 2013) come the findings set out here.

Several values for one entry are separate records, joined by “and”; a condition that tells them apart may be missing. Identical values can stand only once. Like-named read-outs stand apart in the source and are kept apart here. Bounds are passed on as bounds.

In assay [1] the target is T1, delta opioid receptor (Rattus norvegicus, UniProt P33533).
T1 construct: the forebrains were homogenized in Tris buffer in a Teflon®-glass homogenizer; from tissue; host or cells: forebrain of male Wistar rats, particulate (membrane) preparation
The experiment in a line: Rat brain delta opioid receptor binding assay. The following applies: rat forebrain, [3H]naltrindole ligand.

Assay [2] addresses T2, mu opioid receptor (Rattus norvegicus, UniProt P33535).
T2 construct: the forebrains were homogenized in Tris buffer in a Teflon®-glass homogenizer; from tissue; host or cells: forebrain of male Wistar rats, particulate (membrane) preparation
The experiment in a line: Rat brain mu opioid receptor binding assay. The following applies: rat forebrain, [3H]DAMGO ligand.

The target in assay [3] is T3, delta opioid receptor (Mus musculus, UniProt P32300).
T3 construct: NG108-15 cell membranes were purchased from Applied Cell Sciences (Rockville, Md.); host or cells: NG108-15 cell membranes
The assay can be described thus: [35S]GTPγS binding assay in NG108-15 cell membranes (delta opioid functional assay), 200 nM screen. It counts as biochemical. As to conditions: for EC50: GTPγS δ-opioid receptor EC50 (μM), averages if tested more than once; for EC50 / GTPγS δ-opioid receptor Rel Efficacy: NG108-15 cell membranes; for GTPγS δ-opioid receptor Rel Efficacy: relative efficacy from dose response.

Assay [4] deals with hMOR (mu opioid receptor) (Homo sapiens, UniProt P35372). The assay can be described thus: [35S]GTPγS binding assays in CHO-hMOR cell membranes (mu opioid functional assay). The following applies: for inhibition at 10 µM: read-out: GTPγS μ-opioid receptor % Inh @10 μM. It counts as biochemical.
Assay [5] relates to CFA-induced paw radiant heat hypersensitivity. The assay can be described thus: CFA-induced paw radiant heat hypersensitivity. It counts as in vivo, rat. As to conditions: for inhibition in vivo at 100 mg/kg: Rattus norvegicus; for maximum % reversal: time not printed (last time point 100 min).
Assay [6] relates to acetic acid-induced abdominal stretches. The assay can be described thus: Mouse graded abdominal irritant test (GrAIT). It counts as in vivo. As to conditions: 10% Solutol, 30 min pretreatment.
The target of assay [7] is T3, delta opioid receptor. The assay can be described thus: NG108-15, 24-well delta opioid receptor binding assay.
Where [8] appears, read: δ-binding (Naltrindole ligand) Ki.
[9] abbreviates: po, 1 h, read-out: maximum % reversal @ time (min), rat, 100 mg/kg p.o., 0.5% HPMC, @ 60 min.
The mark [10] stands for this setting: po, 3 h, read-out: maximum % reversal @ time (min), rat, 100 mg/kg p.o., 0.5% HPMC, @ 180 min, Algos (contract lab) study.

Chain of hMOR (mu opioid receptor) (P35372 whole entry, looked up): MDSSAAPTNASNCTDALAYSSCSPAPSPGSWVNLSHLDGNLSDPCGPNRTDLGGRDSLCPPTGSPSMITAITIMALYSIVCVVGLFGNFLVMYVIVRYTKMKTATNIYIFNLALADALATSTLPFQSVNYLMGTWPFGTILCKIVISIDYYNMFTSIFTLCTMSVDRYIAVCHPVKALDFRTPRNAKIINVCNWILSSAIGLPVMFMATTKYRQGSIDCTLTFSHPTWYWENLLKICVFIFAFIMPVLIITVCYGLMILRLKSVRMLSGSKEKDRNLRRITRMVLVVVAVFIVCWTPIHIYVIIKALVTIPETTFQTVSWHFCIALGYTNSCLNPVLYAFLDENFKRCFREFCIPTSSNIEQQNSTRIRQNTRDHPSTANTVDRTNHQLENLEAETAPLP
T2 sequence (P33535 whole entry): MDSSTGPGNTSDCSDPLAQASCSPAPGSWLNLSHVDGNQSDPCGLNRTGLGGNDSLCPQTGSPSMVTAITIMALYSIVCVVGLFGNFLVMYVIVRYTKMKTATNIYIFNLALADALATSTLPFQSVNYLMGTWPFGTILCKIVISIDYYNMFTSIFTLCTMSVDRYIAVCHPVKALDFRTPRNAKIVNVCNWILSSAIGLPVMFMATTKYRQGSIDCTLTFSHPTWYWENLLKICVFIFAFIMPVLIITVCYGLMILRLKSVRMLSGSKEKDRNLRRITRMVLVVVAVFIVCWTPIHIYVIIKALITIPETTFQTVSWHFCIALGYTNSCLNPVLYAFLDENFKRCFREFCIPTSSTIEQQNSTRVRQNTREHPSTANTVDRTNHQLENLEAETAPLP
T3 sequence (P32300 whole entry): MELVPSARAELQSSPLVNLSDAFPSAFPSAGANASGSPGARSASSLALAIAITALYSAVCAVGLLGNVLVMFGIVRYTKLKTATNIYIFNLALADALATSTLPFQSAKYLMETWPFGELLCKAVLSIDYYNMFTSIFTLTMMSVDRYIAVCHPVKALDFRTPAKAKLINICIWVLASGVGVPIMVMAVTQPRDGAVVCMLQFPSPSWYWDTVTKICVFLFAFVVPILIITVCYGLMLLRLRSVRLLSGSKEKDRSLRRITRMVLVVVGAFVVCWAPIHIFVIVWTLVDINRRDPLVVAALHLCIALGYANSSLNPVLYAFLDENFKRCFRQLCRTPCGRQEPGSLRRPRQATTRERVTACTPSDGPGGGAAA
T1 sequence (P33533 whole entry): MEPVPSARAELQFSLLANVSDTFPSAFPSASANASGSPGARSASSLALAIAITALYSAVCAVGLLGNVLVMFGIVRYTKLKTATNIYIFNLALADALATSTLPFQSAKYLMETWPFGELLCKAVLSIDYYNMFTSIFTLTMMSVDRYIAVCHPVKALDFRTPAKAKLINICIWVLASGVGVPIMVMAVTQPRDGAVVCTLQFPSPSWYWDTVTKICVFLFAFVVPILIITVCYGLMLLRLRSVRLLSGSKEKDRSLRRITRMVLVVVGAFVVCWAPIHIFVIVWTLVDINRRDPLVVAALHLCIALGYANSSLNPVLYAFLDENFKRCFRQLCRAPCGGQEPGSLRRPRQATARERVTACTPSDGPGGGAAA

A word on the Ki: it is the equilibrium dissociation constant of an inhibitor or competing ligand from its target. A word on the EC50: it is the concentration that produces a half-maximal response. For the compound `COc1ccc(Oc2nc(-c3cccnc3)ncc2NC[C@@H]2CCCN2)cc1` [Cpd 8], the values for the Ki in assay [1] (setting [8]) and in assay [2] (μ-binding Ki) were 6.19 nM and 42.8 nM, respectively. Further, the EC50 in assay [3] is 0.0681 µM. The results for the inhibition at 10 µM in assay [3] (read-out: GTPγS δ-opioid receptor % Inh @10 μM) and in assay [4] were 23.6% and 2.48%, respectively. In addition, in assay [3], the “GTPγS δ-opioid receptor Rel Efficacy” value was determined as 0.848. For the same compound, the inhibition in vivo at 100 mg/kg in assay [5] (setting [9]) was found to be 46.5%; in assay [5] (setting [10]), 75.1%. In addition, the maximum % reversal is listed as 49.0% in assay [5] (rat, 30 mg/kg p.o., 0.5% HPMC) and 64.8% in assay [5] (rat, 100 mg/kg p.o., 0.5% HPMC). The “# abdominal stretches (compound)” value in assay [6] (30 mg/kg s.c.) came to 18.9.
For the compound `COc1ccc(Oc2nc(-c3cnc4ccccc4c3)ncc2NC[C@@H]2CCCN2)cc1` [Cpd 20], the figures for the Ki in assay [1] (setting [8]) and in assay [2] (read-out: μ-binding Ki) were 4.93 nM and 146 nM, respectively. In addition, the “# abdominal stretches (compound)” value in assay [6] (30 mg/kg s.c.) came out at 19.8.
On to `COc1ccc(Oc2nc(-c3ccc(OC)nc3)ncc2NC[C@@H]2CCCN2)cc1` [Cpd 22], for which the figures for the Ki in assay [1] (setting [8]) and in assay [2] (read-out: μ-binding Ki) were 0.909 nM and 1100 nM, respectively. For the same compound, the “# abdominal stretches (compound)” value in assay [6] (30 mg/kg s.c.) was 18.6 and 16.0; in assay [6] (100 mg/kg s.c.), 17.4; in assay [6] (300 mg/kg s.c.), 20.3.
What is called ED50 is the dose that gives a 50% effect, or the effect in half of the subjects. `COc1ccc(Oc2nc(-c3cncnc3)ncc2NC[C@@H]2CCCN2)cc1` [Cpd 23]: the Ki in assay [1] (read-out: δ-binding (Naltrindole ligand) Ki) worked out at 1.25 nM; in assay [2] (read-out: μ-binding Ki), 214 nM. For the same compound, the ED50 in assay [5] (po, 2 h, rat, p.o., 0.5% HPMC, doses 10, 30, 100, 300 mg/kg, time point 120 min, read-out: ED50) is 35.4 mg/kg. In assay [6] (30 mg/kg s.c.), the “# abdominal stretches (compound)” value was determined as 16.7.
In the case of `COc1ccc(Oc2nc(-c3cccnc3F)ncc2NC[C@@H]2CCCN2)cc1` [Cpd 24], the inhibition constant (Ki) in assay [1] (setting [8]) amounted to 1 nM; in assay [2] (read-out: μ-binding Ki), 1060 nM. Moreover, the “# abdominal stretches (compound)” value in assay [6] (30 mg/kg s.c.) stood at 16.9.
For `COc1ccc(Oc2nc(-c3ccc(F)nc3)ncc2NC[C@@H]2CCCN2)cc1` [Cpd 25], in that order: 0.308 nM, 616 nM and 12.3.
With `COc1ccc(Oc2nc(-c3cccnc3OC)ncc2NC[C@@H]2CCCN2)cc1` [Cpd 26], the Ki in assay [1] (setting [8]) was determined as 8 nM; in assay [2] (read-out: μ-binding Ki), 4050 nM. Also, the “# abdominal stretches (compound)” value in assay [6] (30 mg/kg s.c.) worked out at 16.7.
Take `COc1ccc(Oc2nc(-c3cncc(C#N)c3)ncc2NC[C@@H]2CCCN2)cc1` [Cpd 69]: the Ki is 0.139 nM in assay [7], 4.1 nM in assay [1] (setting [8]) and 196 nM in assay [2] (μ-binding Ki). Besides, the EC50 in assay [3] is 0.0085 µM; in assay [4] it was over 10 µM. Besides, the “GTPγS δ-opioid receptor Rel Efficacy” value in assay [3] turned out to be 1.004. Moreover, in assay [4], the inhibition at 10 µM worked out at 22.8%. Besides, the inhibition in vivo at 100 mg/kg came out at 10.1% in assay [5] (setting [9]); 55.7% in assay [5] (po, 1 h, read-out: maximum % reversal @ time (min), rat, 100 mg/kg p.o., 0.5% HPMC, @ 60 min, Algos (contract lab) study); 65.4% in assay [5] (setting [10]).
